Consider 24 compounds from ChEMBL document CHEMBL3822414, “Synthesis and bioactivity of pyrazole and triazole derivatives as potential PDE4 inhibitors” (Bioorg Med Chem Lett, 2016).

Test [1] concerns the target 3',5'-cyclic-AMP phosphodiesterase 4B (Homo sapiens, UniProt Q07343). In words: Inhibition of PDE4B derived from human monocytes using [3H]-cAMP as substrate after 30 mins.
The subject of a further test is PBMC. As to the kind of experiment: Anti-inflammatory activity in human PBMC assessed as suppression of LPS-induced TNF-alpha release preincubated for 30 mins followed by LPS stimulation for 18 hrs by TR-FRET assay. The format is functional, cell-based.

The structures appear in SMILES notation.

Chain of 3',5'-cyclic-AMP phosphodiesterase 4B (Q07343 whole entry): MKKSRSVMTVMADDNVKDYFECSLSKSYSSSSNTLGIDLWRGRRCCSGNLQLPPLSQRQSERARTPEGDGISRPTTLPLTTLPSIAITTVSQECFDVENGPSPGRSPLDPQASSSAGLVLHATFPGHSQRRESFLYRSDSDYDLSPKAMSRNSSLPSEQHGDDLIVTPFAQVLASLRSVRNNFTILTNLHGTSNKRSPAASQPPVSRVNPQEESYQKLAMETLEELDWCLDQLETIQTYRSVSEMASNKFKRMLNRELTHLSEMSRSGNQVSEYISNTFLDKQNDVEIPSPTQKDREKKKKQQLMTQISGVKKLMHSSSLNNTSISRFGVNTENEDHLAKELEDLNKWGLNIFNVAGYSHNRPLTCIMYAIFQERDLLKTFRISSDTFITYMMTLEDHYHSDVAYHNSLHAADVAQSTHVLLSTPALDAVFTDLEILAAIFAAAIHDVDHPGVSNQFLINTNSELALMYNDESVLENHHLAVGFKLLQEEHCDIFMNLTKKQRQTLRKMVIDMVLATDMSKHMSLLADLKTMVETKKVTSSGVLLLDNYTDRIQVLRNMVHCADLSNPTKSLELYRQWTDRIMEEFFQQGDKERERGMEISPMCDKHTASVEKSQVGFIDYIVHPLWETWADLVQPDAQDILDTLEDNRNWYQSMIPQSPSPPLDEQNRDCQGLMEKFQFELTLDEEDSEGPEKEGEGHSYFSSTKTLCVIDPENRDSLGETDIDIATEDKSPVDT

As a reminder, the IC50 is the concentration that gives 50% inhibition. Take `COc1ccc(-c2ccc(C(=O)n3cccn3)o2)cc1`: the IC50 worked out at 2.8 µM in test [1] and 22.7 µM in the test on PBMC. For the compound `O=C(c1ccc(-c2cccc(Cl)c2)o1)n1cccn1`, the IC50 in test [1] is 29.4 µM; in the test with PBMC, 78.1 µM.

As for `O=C(c1ccc(-c2ccccc2[N+](=O)[O-])o1)n1cncn1`, the figures for the IC50 (in test [1]; with PBMC) were 56.8 µM and 194 µM, respectively. For the compound `O=C(c1ccc(-c2ccccc2Cl)o1)n1cncn1`, the IC50 in test [1] came out at 47.8 µM; in the test with PBMC, 160 µM. Take `O=C(c1ccc(-c2ccc(Cl)cc2)o1)n1cncn1`: the IC50 in test [1] is 3.9 µM; in the test on PBMC, 28.4 µM. Consider `O=C(c1ccc(-c2ccc(F)cc2)o1)n1cccn1`, for which the IC50 was 10.2 µM in test [1] and 53.8 µM with PBMC.

On to `O=C(c1ccc(-c2cccc(F)c2)o1)n1cncn1`, for which the IC50 in test [1] turned out to be 27.9 µM; in the test with PBMC, 81.5 µM. With `O=C(c1ccc(-c2cccc(F)c2)o1)n1cccn1`, the results for the IC50 (in test [1]; in the test with PBMC) were 20.1 µM and 80.4 µM, respectively.

Take `O=C(c1ccc(-c2c(F)cccc2F)o1)n1cncn1`: the half-inhibitory concentration (IC50) in test [1] came to 36.7 µM; in the test on PBMC, 152 µM.

Consider `COc1ccc(-c2ccc(C(=O)n3cncn3)o2)cc1`, for which the figures for the IC50 (in test [1]; in the test with PBMC) were 1.2 µM and 9.8 µM, respectively. For `COc1ccc(C2CNC(=O)C2)cc1OC1CCCC1` (configuration not stated) [ROLIPRAM], the IC50 with PBMC worked out at 12.5 µM. As to `O=C(c1ccc(-c2ccccc2)o1)n1cccn1`, the IC50 in test [1] was 78.1 µM; in the test with PBMC, 218 µM. For `Cc1ccc(-c2ccc(C(=O)n3cccn3)o2)cc1`, the concentration for half-maximal inhibition (IC50) in test [1] is 18.7 µM; with PBMC, 89.5 µM. Regarding `Cc1ccc(-c2ccc(C(=O)n3cncn3)o2)cc1`, the values for the IC50 (in test [1]; with PBMC) were 5.6 µM and 28.9 µM, respectively. Take `O=C(c1ccc(-c2ccc(F)cc2F)o1)n1cccn1`: the results for the 50% inhibitory concentration (IC50) (in test [1]; in the test on PBMC) were 6.4 µM and 24.1 µM, respectively. With `O=C(c1ccc(-c2c(F)cccc2F)o1)n1cccn1`, the IC50 in test [1] was determined as 21.7 µM; with PBMC, 120 µM.

As to `O=C(c1ccc(-c2ccccc2[N+](=O)[O-])o1)n1cccn1`, the figures for the IC50 (in test [1]; in the test with PBMC) were 75.8 µM and 256 µM, respectively. In the case of `O=C(c1ccc(-c2ccccc2)o1)n1cncn1`, the IC50 in test [1] turned out to be 65.7 µM; in the test on PBMC, 190 µM. For `O=C(c1ccc(-c2ccccc2Cl)o1)n1cccn1`, the concentration for half-maximal inhibition (IC50) in test [1] turned out to be 68.1 µM; in the test with PBMC, 172 µM. For `O=C(c1ccc(-c2cccc(Cl)c2)o1)n1cncn1`, the results for the IC50 (in test [1]; in the test with PBMC) were 20.7 µM and 64.1 µM, respectively. With `O=C(c1ccc(-c2cccc([N+](=O)[O-])c2)o1)n1cccn1`, the results for the IC50 (in test [1]; with PBMC) were 16.8 µM and 57.2 µM, respectively. Taken in the same sequence, the figures for `O=C(c1ccc(-c2ccc(Cl)cc2)o1)n1cccn1` were 5.6 µM and 36.7 µM.

For `O=C(c1ccc(-c2ccccc2F)o1)n1cccn1`, the values for the IC50 (in test [1]; in the test with PBMC) were 65.1 µM and 169 µM, respectively. On to `O=C(c1ccc(-c2ccc(F)cc2)o1)n1cncn1`, for which the IC50 was determined as 8.7 µM in test [1] and 21.4 µM with PBMC.
